Consider six compounds from patent US11679097B2, “Combination product containing limonoid compound and biguanide compound” (ZHEJIANG YANGSHENGTANG INSTITUTE OF NATURAL MEDICATION CO., …, priority 2017, dated 2023).

What all share (format): in vivo
Assay [1] deals with STZ mice. The assay can be described thus: Blood glucose in mouse pancreatic islet β-cell injury model (Example 3). As to conditions: STZ ICR mice; single administration 0.1 g/kg per day by gavage, two weeks; 1 h after last administration. An excerpt: Effects of a Limonoid Compound, Metformin or a Combination Thereof on Blood Glucose in a Mouse Pancreatic Islet β-Cell Injury Model In this example, a mouse pancreatic islet β-cell injury model was established by modeling ICR mice with streptozotocin (STZ) (referred to the prior art literature: Li Nan et al., Protective effect of pine pollen on kidney damage in diabetic nephropathy mice, Science and Technology Review, 2014, 32 (4/5): 95-99), and used to complete the evaluation of hypoglycemic effect in animals (this model could simulate pancreatic islet β-cell damage state of type I and type II diabetics). […] Conditions of experimental feeding: ICR mice (20±2 g), aged 6 weeks, purchased from Zhejiang Academy of Medical Sciences, and subjected to experimental feeding after 7 days of preliminary feeding. […] The experimental feed was mouse growth-stable feed (GB […]), and the daily feeding and management of the animals were under the responsibility of the animal security department, which provided the animals with sufficient padding and fresh drinking water daily. Experimental grouping: 15 male mice were randomly selected as the normal control group. […] Gavage doses: the gavage dose was 0.1 g/kg per day for the […] group, the gavage dose was 0.1 g/kg per day for the […] group, the gavage dose was 0.1 g/kg per day for the […]-glucopyranoside group, the gavage dose of metformin was 0.1 g/kg per day for the metformin group, […] dose of 0.05 g/kg and metformin at a dose of 0.05 g/kg were simultaneously gavaged per day for the […]/metformin combination group, […] dose of 0.05 g/kg and metformin at a dose of 0.05 g/kg were simultaneously gavaged per day for the […]/metformin combination group, […]-glucopyranoside at a dose of 0.05 g/kg and metformin at a dose of 0.05 g/kg were simultaneously gavaged per day for the […]-glucopyranoside/metformin combination group, the gavage volume was 10 mL/kg, and the normal group and the model group were administrated with 10 mL/kg of distilled water. […] SPSS 16.0 software was used for statistical analysis. The data were expressed as mean and standard deviation. The data before and after were analyzed by t-test, and P<0.05 was considered statistically significant.

The subject of another assay is db/db mice. Description: Blood glucose and insulin in mouse model of type II diabetes (Example 4). As to conditions: single administration 0.2 g/kg per day by gavage, two weeks. An excerpt:
Effects of a Limonoid Compound, Metformin or a Combination Thereof on Blood Glucose and Insulin in a Mouse Model of Type II Diabetes
In the present embodiment, the limonoid compound selected nomilin, deacetylnomilin, nomilin acid, deactylnomilin 17-β-D-glucopyranoside, and a nomilin single administration group, deacetylnomilin single administration group, nomilin acid single administered group, deactylnomilin 17-β-D-glucopyranoside single administration group, and combination thereof with metformin administration groups were set, respectively.
Conditions for experimental feeding: as type II diabetes model mice, 6-week-old SPF-grade db/db mice were purchased from the Nanjing Model Biology Institute, and subjected to experimental feeding after 7 days of preliminary feeding. It should be noted that the conditions for raising the mice were as follows: the temperature was 23±1° C., the humidity was 55±10%, the lights were turned on between 7 am and 7 pm (the lights were turned off at other time), and the mice were allowed to access to water and feed freely. The experimental feed was mouse growth-stable feed (GB M2118), and the daily feeding and management of the animals were under the responsibility of the animal security department, which provided the animals with sufficient padding and fresh drinking water daily.
Experimental grouping: male db/db mice (20±2 g) were selected, 18 male mice in each group were tested, and drinking bottles were sterilized weekly. The experimental groups included the normal control group (db/m, n=18), the model group (db/db, n=18), the nomilin group (db/db, n=18), the deacetylnomilin group (db/db, n=18), the nomilin acid group (db/db, n=18), the deactylnomilin 17-β-D-glucopyranoside group (db/db, n=18), the metformin group (db/db, n=18), the nomilin/metformin combination group (db/db, n=18), the deacetylnomilin/metformin combination group (db/db, n=18), the nomilin acid/metformin combination group (db/db, n=18), the deactylnomilin 17-β-D-glucopyranoside/combination group (db/db, n=18).
Gavage doses: nomilin at a dose of 0.2 g/kg was gavaged per day for the nomilin group, deacetylnomilin at a dose of 0.2 g/kg was gavaged per day for the deacetylnomilin group, nomilin acid at a dose of 0.2 g/kg was gavaged per day for the nomilin acid group, deacetylnomilin […] at a dose of 0.2 g/kg was gavaged per day for the deactylnomilin glucopyranoside group, metformin at a dose of 0.2 g/kg was gavaged per day for the metformin group, nomilin at a dose of 0.1 g/kg and metformin at a dose of 0.1 g/kg were simultaneously gavaged per day for the nomilin/metformin combination group, nomilin acid at a dose of 0.1 g/kg and metformin at a dose of 0.1 g/kg were simultaneously gavaged per day for the nomilin acid/metformin combination group, deacetylnomilin at a dose of 0.1 g/kg and metformin at a dose of 0.1 g/kg were simultaneously gavaged per day for the deacetylnomilin/metformin combination group, deactylnomilin 17-β-D-glucopyranoside at a dose of 0.1 g/kg and metformin at a dose of 0.1 g/kg were simultaneously gavaged per day for the deactylnomilin 17-β-D-glucopyranoside/metformin combination group, the gavage volume was 10 mL/kg, and the normal group and the model group were administrated with 10 mL/kg of distilled water. Two weeks later, the blood glucose values were measured by tail trimming method (Johnson's blood glucose meter) 1 h after the last administration, and serum insulin levels were measured with blood collected from orbital cavity by enzyme-linked immunosorbent assay (Elisa), and the average of each group was obtained. SPSS 16.0 software was used for statistical analysis. The data were expressed as mean and standard deviation. The data before and after were analyzed by t-test, and P<0.05 was considered statistically significant.

Assay [2] has as its system STZ mice. Description: Blood glucose in mouse model of type II diabetes with pancreatic islet damage and obesity (Example 5). Particulars: high-fat diet + STZ ICR mice; single administration 0.5 g/kg per day by gavage, three weeks. The method, then:
It should be noted that the conditions for raising the mice were as follows: the temperature was 23±1° C., the humidity was 55±10%, the lights were turned on between 7 am and 7 pm (the lights were turned off at other time), and the mice were allowed to access to water and feed freely. The experimental feed was mouse growth-stable feed (GB M2118), and the daily feeding and management of the animals were under the responsibility of the animal security department, which provided the animals with sufficient padding and fresh drinking water daily.
SPSS 16.0 software was used for statistical analysis.

In the case of `CC1(C)O[C@](C)(O)[C@]2(C)[C@H]3CC[C@@]4(C)[C@H](c5ccoc5)OC(=O)[C@H]5O[C@]54[C@]3(C)C(=O)C[C@@H]12` [Ichangensin, ichangensin], the Blood glucose value in the assay with STZ mice [1] stood at 14.5 ± 3.5 mmol/L.

As to `CC(C)(O)[C@@H]1CC(=O)[C@]2(C)[C@H](CC[C@@]3(C)[C@H](c4ccoc4)OC(=O)[C@H]4O[C@]432)[C@]12COC(=O)C[C@@H]2O` [Ichangin, ichangin], the Blood glucose value with STZ mice [1] stood at 14.8 ± 1.9 mmol/L.

For the compound deactylnomilin 17-β-D-glucopyranoside, in the assay with db/db mice (serum, Elisa), the Insulin stood at 8.40 ± 3.27 pg/mL. In addition, the Blood glucose value in the assay with db/db mice (1 h after last administration) is reported as 12.8 ± 5.5 mmol/L; with STZ mice [2], 12.7 ± 2.5 mmol/L.

Turning to ichangin 17-β-D-glucopyranoside, the Blood glucose value with STZ mice [1] came to 14.9 ± 2.1 mmol/L.

For nomilin 17-β-D-glucopyranoside, the Blood glucose value with STZ mice [2] was 12.8 ± 2.9 mmol/L.

Regarding nomilinic acid 17-β-D-glucopyranoside, the Blood glucose value in the assay on STZ mice [2] is 13.5 ± 2.4 mmol/L.
